Here are results for one molecule from article PMC5025780, “Copper(II) ions affect the gating dynamics of the 20S proteasome: a molecular and in cell study” (Scientific Reports, 2016).

What is called IC50 is the point on the concentration scale where inhibition reaches its midpoint.

In series [1] the target is T1, human 20S proteasome (hCP), T-L activity.
T1 construct: purchased Boston Biochem (Cambridge, MA, USA)
The experiment in a line: T-L peptidase activity of isolated hCP (fluorogenic substrate). It is filed as biochemical. An excerpt:
(§1) Purified human 20S proteasome (hCP) and the fluorogenic substrates Suc-LLVY-AMC, Z-Leu-Leu-Glu-AMC, and Ac-Arg-Leu-Arg-AMC used to assay the ChT-L, T-L, and C-L activity, were from Boston Biochem (Cambridge, MA, USA). Bathocuproinedisulfonic acid disodium salt (BCS), dithiothreitol (DTT), N-Acetyl-L-Cysteine (NAC), Sodium dodecylsulphate (SDS) as well as CuCl2 and Zn(NO3)2 were from Sigma-Aldrich (St. Louis, MO). Proteasome inhibitors Epoxomicin were obtained from Enzo Life Science. Wild type 20S proteasome isolated from Saccharomices Cerevisiae (yCP) and a mutant (α3ΔN) where nine residues of the N-terminal tail of the α3 subunit are deleted to provide a permanently open-gate conformations were isolated as described elsewhere.
(§2) Peptidase activities of hCP (2 nM) were assayed on in 50 μL Tris 25 mM pH 7.6, at 37 °C with 100 μM of the fluorogenic substrate. hCP was incubated with Cu(II)/Zn(II) ions for 1 h prior activity assays. The fluorescence signal activated by peptide cleavage was recorded at 440 nm (excitation at 360 nm) for 45 min, by a Varioskan (Thermo^©) plate reader in 384 multiwell plates. Three replicates were performed for each data point. Data were reported as normalized percentages of residual activity. The potency (IC50) was calculated from the value of the dose response plot corresponding at a fractional activity of 50%. The IC50 values were determined using a non linear fit of experimental data in according to equation: […]
(§3) The midpoint of this function occurs at a fractional activity value of 50%, corresponding to half inhibition of the target enzyme. The IC50 values and their standard errors were deduced from the fitting. To evaluate if copper is a reversible PI, we measured the ChT-L activity of hCP incubated with Cu(II) (2.20 μM) before and after addition of an equimolar amount of EDTA.

Series [2] addresses T2, human 20S proteasome (hCP), C-L activity.
T2 construct: purchased Boston Biochem (Cambridge, MA, USA)
The series can be described thus: C-L peptidase activity of isolated hCP (fluorogenic substrate). It is filed as biochemical.
Excerpt: as §1, §2, §3

Series [3] concerns ubiquitinated proteins in Hela cells. The series can be described thus: Western blot of polyubiquitinated proteins in HeLa cells. In kind it is cell-based, human. The settings on record: 20 and 80 μM Cu(II), 24 hours. As to the method:
After 24 h of copper(II) treatment (20–80 μM), HeLa cells were washed with cold PBS, and lysed with 100 μL of RIPA buffer for 5 minutes at 4 °C, sonicated and centrifuged for 10 minutes at 4 °C (1400 rpm). The protein content of lysates is quantified using the BCA method, (protein assay kit, BioRad). Western blotting analysis for polyUb chains was performed on total protein extracts ([…]). Samples were loaded onto 4–12% bis-Tris gel, (Invitrogen). After separation, proteins were transferred onto a nitrocellulose membrane. Membranes were blotted at 4 °C O/N with the following primary antibodies: rabbit monoclonal anti-polyubiquitin (linkage specific K48) (1:2500, Abcam), and mouse anti-β-actin (1:1000, Sigma Aldrich). Secondary goat anti-rabbit labeled with IRDye 680 (1:25.000 Li-COR Biosciences) and goat anti-mouse labeled with IRDye 800 (1:25.000 Li-COR Biosciences) were used at RT for 45 min. Hybridization signals were detected with the Odyssey Infrared Imaging System (LI-COR Biosciences).
On the technique in general: Immunoblotting shows a protein as a band on a membrane.

The subject of the next series is HeLa cells. Set-up: method as in PMID 9057888, PMID 21584299. The settings on record: Cu(II)-supplemented media up to 100 μM; cited from earlier work.
A further series deals with T3, 20S proteasome (CP) gate.
T3 construct: purchased Boston Biochem (Cambridge, MA, USA)
The series can be described thus: Steady-state Trp fluorescence of SDS-activated 20S proteasome (gating). Also on record: species or system human. The settings on record: 100 μM Cu(II) added to SDS-activated CP (0.018% SDS), pH 7.6, 37 °C. The protocol: In particular, fluorescence spectra of the isolated 20S proteasome may be deconvoluted into two components. The first of these bands is ascribable to Trp13(α6) residues which are located at the entrance of the channel. Therefore, a red-shift of the first component may be associated to a gate opening of the 20S proteasome. Here, we exploited this effect to investigate the role of Cu(II) ions in CP gate closing. […] Next, we recorded the fluorescence spectra obtained immediately (t = 0 min) and after 30 min the addition of 100 μM Cu(II) ions to the SDS-activated CP and deconvoluted the fluorescence spectra into the contributions from each type of tryptophan as described in the experimental section (see Fig. 3 panel A). […]
Fluorescence emission spectra of purified 20S proteasomes (1.5 μM) in a MOPS buffer 10 mM, 0.018% SDS, pH 7.6 were recorded at 37 °C over time prior to and following addition of Cu(II) (100 μM). […] The final fluorescence spectra represent averages of at least three measurements. […] Fluorescence spectra were recorded on a Horiba Fluoromax-4 spectrofluorimeter from 300 to 400 nm in 1-nm steps, at an excitation wavelength λexc = 295 nm. Deconvolution of fluorescence spectra into the log-normal components was performed according to the algorithms integrated into the web-based toolkit PFAST (http://pfast.phys.edu/)[43]. […]

Each structure is given as a SMILES string. Read-outs that look alike come from different tables or passages of the source.

On to `[Cl][Cu][Cl]` [Cu(II), CuCl2], for which the IC50 in series [1] (hCP 2 nM, 1 h preincubation with ions, Tris 25 mM pH 7.6, 37 °C, no SDS, read-out: IC50 T-L) came out at 1450 nM; in series [1] (in the presence of 0.018% SDS, other conditions unmodified, read-out: IC50 T-L, Cu(II) + SDS), 1350 nM; in series [2] (hCP 2 nM, 1 h preincubation with ions, Tris 25 mM pH 7.6, 37 °C, no SDS, read-out: IC50 C-L), 1010 nM; in series [2] (in the presence of 0.018% SDS, other conditions unmodified, read-out: IC50 C-L, Cu(II) + SDS), 1830 nM. In addition, in series [3], the “Accumulation of ubiquitinated proteins” value was “enhanced the accumulation of ubiquitinated proteins”. The HeLa cell growth entry in the series on HeLa cells is reported as “not inhibited”. The “Red shift of first Trp fluorescence component (gate opening)” value in the series on 20S proteasome (CP) gate was “decreased rate of red-shift”.
